Experimental data taken from patent US20240118287A1, “ANALYSIS PLATE FOR A MASS SPECTROMETRY ANALYSIS AND ASSOCIATED METHOD FOR CHARACTERIZING MICROORGANISMS BY MASS SPECTROMETRY” (priority 2021, published 2024).
Values after ≈ are worked out from the molar mass of the structure shown.

Key:
Type in all cases: cell-based
Ref 6 S. aureus = assay: MIC by microdilution in broth, reference strain Ref 6; design: key to Phenotype (R = resistant, S = sensitive): RA signifies resistance to amoxicillin; RC signifies resistance to ceftriaxone; RM signifies resistance to meropenem; RO resistance to oxacillin; SA signifies sensitive to amoxicillin; SC signifies sensitive to ceftriaxone; SM signifies sensitive to meropenem; SO sensitive to oxacillin
Protocol: (§1) The minimum inhibitory concentration (MIC in μg/ml) was determined by microdilution in broth, a technique very widely used by a person skilled in the art.

Ref 7 S. aureus = assay: MIC by microdilution in broth, reference strain Ref 7; design: key to Phenotype (R = resistant, S = sensitive): RA signifies resistance to amoxicillin; RC signifies resistance to ceftriaxone; RM signifies resistance to meropenem; RO resistance to oxacillin; SA signifies sensitive to amoxicillin; SC signifies sensitive to ceftriaxone; SM signifies sensitive to meropenem; SO sensitive to oxacillin; conditions: mecA
Protocol: as §1

[1] = tested on: Isolate 10 (Staphylococcus aureus); assay: Resistance characterization on functionalized analysis plate, MALDI-TOF (Example 4); conditions: isolate 10 (S. aureus); oxacillin 2 μg/ml; threshold identification probability ≥90% for at least 3 deposits out of 4
Protocol: (§2) This cassette comprises a gasket so as to be able to dispose the analysis plate on a sponge impregnated to saturation with Muller-Hinton culture medium. The sponge impregnated with a culture medium serves as a support, and it is made of porous material as described in the description.
(§3) A cover was placed on the cassette containing the analysis plate so as to be clipped on the cassette and close the device without touching the top of the drops.
(§4) The analysis cassettes thus prepared were incubated in the stove at 37° C. for 2, 3, 4 or 5 hours.
(§5) At the end of the incubation step, the analysis plates are placed on very absorbent, dry blotting paper, with an absorption capacity of 25 μL·cm^−2, so that the drops present on the analysis plate are aspirated by capillarity through the analysis zones made of porous material.
(§6) 1 μl of HCCA matrix, alpha-cyano 4-hydroxycinnamic acid (VITEK®MS-CHCA, bioMérieux reference 411071) was deposited on the analysis zones, comprising the microorganisms and the antimicrobial agent, and on the calibration zones comprising the calibrant.
(§7) The analysis plate is then dried and analyzed by VITEK®MS as described in example 1.
(§8) The isolates identified in example 1 were diluted to 0.5 McFarland (McF) in Muller-Hinton medium (bioMérieux reference AEB 110699), then diluted again to 1/100° for the Gram-negative bacteria and to 1/10° for the Gram-positive bacteria, always in Muller-Hinton medium.
(§9) Drops of 2 μl of the final dilutions were deposited on the analysis zones of the analysis plates according to the invention as described in example 2. As before, the dilutions of E. coli and of K. pneumoniae were analyzed on the targets with 16 deposits of amoxicillin, 16 deposits of ceftriaxone and 16 deposits of meropenem. The dilutions of Staphylococci were analyzed on the targets with 2 μg/ml of oxacillin.
(§10) When no sample deposit was provided on an analysis zone, this zone is covered with a Parafilm M plastic film (Bemis North America) before putting the analysis plate in the cassette. In this way, the analysis zone was not brought into contact with the culture medium contained in the sponge impregnated to saturation. The positions unused in the first analysis thus remained usable for a subsequent analysis.
(§11) The analysis was carried out according to the same procedure as in example 3 with an incubation of 4 h for all the microorganisms. Moreover, the results were interpreted as in example 3, i.e. with a threshold of identification probability greater than or equal to 90% for at least 3 deposits out of 4.

[2] = tested on: Isolate 11 (Staphylococcus aureus); assay: as above; conditions: isolate 11 (S. aureus); oxacillin 2 μg/ml; threshold identification probability ≥90% for at least 3 deposits out of 4
Protocol: as §2, §3, §4, §5, §6, §7, §8, §9, §10, §11

[3] = tested on: Isolate 12 (Staphylococcus epidermidis); assay: as above; conditions: isolate 12 (S. epidermidis); oxacillin 2 μg/ml; threshold identification probability ≥90% for at least 3 deposits out of 4
Protocol: as §2, §3, §4, §5, §6, §7, §8, §9, §10, §11

[4] = tested on: Isolate 9 (Staphylococcus aureus); assay: as above; conditions: isolate 9 (S. aureus); oxacillin 2 μg/ml; threshold identification probability ≥90% for at least 3 deposits out of 4
Protocol: as §2, §3, §4, §5, §6, §7, §8, §9, §10, §11

[5] = tested on: Isolate 10 (Staphylococcus aureus); assay: MIC determination on analysis plate with oxacillin concentration range, MALDI-TOF (Example 5); conditions: read-out: MIC by the method of the invention
Protocol: as §4, §5, §6, §7
(§12) The dilutions of Staphylococci of the reference strains and of the isolates were analyzed on the analysis plates according to the invention with 4 deposits of oxacillin at 0.125 μg/ml, 4 deposits of oxacillin at 0.25 μg/ml, 4 deposits of oxacillin at 0.5 μg/ml, 4 deposits of oxacillin at 1 μg/ml, 4 deposits of oxacillin at 2 μg/ml, 4 deposits of oxacillin at 4 μg/ml, 4 deposits of oxacillin at 8 μg/ml, 4 deposits of oxacillin at 16 μg/ml, 4 deposits of oxacillin at 32 μg/ml, 4 deposits of oxacillin at 64 μg/ml, 4 deposits of oxacillin at 128 μg/ml, 4 deposits of oxacillin at 256 μg/ml.

[6] = tested on: Isolate 11 (Staphylococcus aureus); assay: as above; conditions: read-out: MIC by the method of the invention
Protocol: as §4, §5, §6, §7, §12

[7] = tested on: Isolate 12 (Staphylococcus epidermidis); assay: as above; conditions: read-out: MIC by the method of the invention
Protocol: as §4, §5, §6, §7, §12

[8] = tested on: Isolate 9 (Staphylococcus aureus); assay: as above; conditions: read-out: MIC by the method of the invention
Protocol: as §4, §5, §6, §7, §12

[9] = tested on: Reference strain No. 6 (S. aureus); assay: as above
Protocol: as §4, §5, §6, §7, §12

[10] = tested on: reference strain No. 7 (S. aureus); assay: as above
Protocol: as §4, §5, §6, §7, §12

Ref 1 K. pneumoniae = assay: MIC by microdilution in broth, reference strain Ref 1; design: key to Phenotype (R = resistant, S = sensitive): RA signifies resistance to amoxicillin; RC signifies resistance to ceftriaxone; RM signifies resistance to meropenem; RO resistance to oxacillin; SA signifies sensitive to amoxicillin; SC signifies sensitive to ceftriaxone; SM signifies sensitive to meropenem; SO sensitive to oxacillin
Protocol: as §1

Ref 2 K. pneumoniae = assay: MIC by microdilution in broth, reference strain Ref 2; design: key to Phenotype (R = resistant, S = sensitive): RA signifies resistance to amoxicillin; RC signifies resistance to ceftriaxone; RM signifies resistance to meropenem; RO resistance to oxacillin; SA signifies sensitive to amoxicillin; SC signifies sensitive to ceftriaxone; SM signifies sensitive to meropenem; SO sensitive to oxacillin
Protocol: as §1

Ref 3 E. coli = assay: MIC by microdilution in broth, reference strain Ref 3; design: key to Phenotype (R = resistant, S = sensitive): RA signifies resistance to amoxicillin; RC signifies resistance to ceftriaxone; RM signifies resistance to meropenem; RO resistance to oxacillin; SA signifies sensitive to amoxicillin; SC signifies sensitive to ceftriaxone; SM signifies sensitive to meropenem; SO sensitive to oxacillin
Protocol: as §1

Ref 4 E. coli = assay: MIC by microdilution in broth, reference strain Ref 4; design: key to Phenotype (R = resistant, S = sensitive): RA signifies resistance to amoxicillin; RC signifies resistance to ceftriaxone; RM signifies resistance to meropenem; RO resistance to oxacillin; SA signifies sensitive to amoxicillin; SC signifies sensitive to ceftriaxone; SM signifies sensitive to meropenem; SO sensitive to oxacillin
Protocol: as §1

Ref 5 E. coli = assay: MIC by microdilution in broth, reference strain Ref 5; design: key to Phenotype (R = resistant, S = sensitive): RA signifies resistance to amoxicillin; RC signifies resistance to ceftriaxone; RM signifies resistance to meropenem; RO resistance to oxacillin; SA signifies sensitive to amoxicillin; SC signifies sensitive to ceftriaxone; SM signifies sensitive to meropenem; SO sensitive to oxacillin; conditions: CTX-M
Protocol: as §1

[11] = tested on: Isolate 1 (Escherichia coli); assay: Resistance characterization on functionalized analysis plate, MALDI-TOF (Example 4); conditions: threshold identification probability ≥90% for at least 3 deposits out of 4, amoxicillin 2, ceftriaxone 24, meropenem 2 μg/ml
Protocol: as §2, §3, §4, §5, §6, §7, §8, §9, §11

[12] = tested on: Isolate 3 (Escherichia coli); assay: as above; conditions: threshold identification probability ≥90% for at least 3 deposits out of 4, amoxicillin 2, ceftriaxone 24, meropenem 2 μg/ml
Protocol: as §2, §3, §4, §5, §6, §7, §8, §9, §11

[13] = tested on: Isolate 5 (Escherichia coli); assay: as above; conditions: isolate 5 (E. coli); threshold identification probability ≥90% for at least 3 deposits out of 4; amoxicillin 2, ceftriaxone 24, meropenem 2 μg/ml
Protocol: as §2, §3, §4, §5, §6, §7, §8, §9, §11

[14] = tested on: Isolate 7 (Klebsiella pneumoniae); assay: as above; conditions: isolate 7 (K. pneumoniae); threshold identification probability ≥90% for at least 3 deposits out of 4; amoxicillin 2, ceftriaxone 24, meropenem 2 μg/ml
Protocol: as §2, §3, §4, §5, §6, §7, §8, §9, §11

[15] = tested on: Isolate 8 (Klebsiella pneumoniae); assay: as above; conditions: isolate 8 (K. pneumoniae); threshold identification probability ≥90% for at least 3 deposits out of 4; amoxicillin 2, ceftriaxone 24, meropenem 2 μg/ml
Protocol: as §2, §3, §4, §5, §6, §7, §8, §9, §11

[16] = Staphylococcus aureus, microdilution in broth, read-out: Minimum inhibitory concentration (MIC in μg/ml)
[17] = Escherichia coli, microdilution in broth, read-out: Minimum inhibitory concentration (MIC in μg/ml)

With `Cc1onc(-c2ccccc2)c1C(=O)N[C@@H]1C(=O)N2[C@@H]1SC(C)(C)[C@@H]2C(=O)O` [Oxacillin, oxacillin] the “Phenotype (R = resistant, S = sensitive)” value (Ref 6 S. aureus) was “SO”, the MIC (Ref 6 S. aureus; [16]) was 0.25 µg/mL (≈ 0.623 µM) and the MIC (Ref 7 S. aureus; [16]) was 128 µg/mL (≈ 319 µM). The “Phenotype (R = resistant, S = sensitive)” value (Ref 7 S. aureus) was “RO”, the “Isolate characterized as resistant or sensitive to the antibiotic” value (shortened to “Isolate characterized”) [1] was “sensitive” and the “Isolate characterized” value [2] was “sensitive”. For the same compound, the “Isolate characterized” value [3] was “sensitive”, the “Isolate characterized” value [4] was “resistant” and the MIC [5] was 0.25 µg/mL (≈ 0.623 µM). The MIC [6] was 0.5 µg/mL (≈ 1.25 µM), the MIC [7] was 0.125 µg/mL (≈ 0.311 µM) and the MIC [8] was 16 µg/mL (≈ 39.9 µM). For the same compound, the MIC ([9]; Staphylococcus aureus, equals Table 2 MIC, read-out: MIC, lowest growth inhibiting concentration observed by the method of the invention) was 0.25 µg/mL (≈ 0.623 µM), the “Identification as S. aureus” value ([9]; higher concentrations of oxacillin (above 0.25 μg/ml)) was “not identified” and the “Identification probability as S. aureus” value ([9]; oxacillin 0.125 μg/ml, in 3 deposits out of 4) was “greater than 99.9%”. The “Identification probability as S. aureus” value ([9]; oxacillin 0.25 μg/ml, for 1 deposit out of 4) was “greater than 99.9%”, the MIC ([10]; Staphylococcus aureus, compliant with Table 2, read-out: MIC by the method of the invention) was 128 µg/mL (≈ 319 µM) and the “Identification probability as S. aureus” value ([10]; oxacillin 0.125 at 64 μg/ml) was 99.9%. The “Identification as S. aureus” value ([10]; oxacillin 128 and 256 μg/ml) was “not identified”.

With `CC1(C)S[C@@H]2[C@H](NC(=O)[C@H](N)c3ccc(O)cc3)C(=O)N2[C@H]1C(=O)O` [Amoxicillin, amoxicillin] the “Phenotype (R = resistant, S = sensitive)” value (Ref 1 K. pneumoniae; KPC-2) was “RA”, the MIC (Ref 1 K. pneumoniae; Klebsiella pneumoniae, KPC-2, microdilution in broth, read-out: Minimum inhibitory concentration (MIC in μg/ml)) was greater than 128 µg/mL and the MIC (Ref 2 K. pneumoniae; Klebsiella pneumoniae, OXA-48, microdilution in broth, read-out: Minimum inhibitory concentration (MIC in μg/ml)) was 64 µg/mL (≈ 175 µM). The “Phenotype (R = resistant, S = sensitive)” value (Ref 2 K. pneumoniae; OXA-48) was “RA”, the MIC (Ref 3 E. coli; Escherichia coli, TEM-2, microdilution in broth, read-out: Minimum inhibitory concentration (MIC in μg/ml)) was 32 µg/mL (≈ 87.6 µM) and the “Phenotype (R = resistant, S = sensitive)” value (Ref 3 E. coli; TEM-2) was “RA”. The “Phenotype (R = resistant, S = sensitive)” value (Ref 4 E. coli) was “SA”, the MIC (Ref 4 E. coli; [17]) was 1 µg/mL (≈ 2.74 µM) and the “Phenotype (R = resistant, S = sensitive)” value (Ref 5 E. coli) was “RA”. For the same compound, the MIC (Ref 5 E. coli; [17]) was greater than 128 µg/mL, the “Isolate characterized” value [11] was “resistant” and the “Isolate characterized” value [12] was “resistant”. The “Isolate characterized” value [13] was “resistant”, the “Isolate characterized” value [14] was “resistant” and the “Isolate characterized” value [15] was “resistant”.
